Results from article PMC3914206.

What was measured:
Type in all cases: binding
Conditions in all cases: Compound Concentration 10 µM
panel of 442 kinases [1] = biological target: T1, panel of 442 kinases (Homo sapiens, UniProt Q15139)
T1 construct: purchased KINOMEscan
T1 sequence (Q15139 1-912): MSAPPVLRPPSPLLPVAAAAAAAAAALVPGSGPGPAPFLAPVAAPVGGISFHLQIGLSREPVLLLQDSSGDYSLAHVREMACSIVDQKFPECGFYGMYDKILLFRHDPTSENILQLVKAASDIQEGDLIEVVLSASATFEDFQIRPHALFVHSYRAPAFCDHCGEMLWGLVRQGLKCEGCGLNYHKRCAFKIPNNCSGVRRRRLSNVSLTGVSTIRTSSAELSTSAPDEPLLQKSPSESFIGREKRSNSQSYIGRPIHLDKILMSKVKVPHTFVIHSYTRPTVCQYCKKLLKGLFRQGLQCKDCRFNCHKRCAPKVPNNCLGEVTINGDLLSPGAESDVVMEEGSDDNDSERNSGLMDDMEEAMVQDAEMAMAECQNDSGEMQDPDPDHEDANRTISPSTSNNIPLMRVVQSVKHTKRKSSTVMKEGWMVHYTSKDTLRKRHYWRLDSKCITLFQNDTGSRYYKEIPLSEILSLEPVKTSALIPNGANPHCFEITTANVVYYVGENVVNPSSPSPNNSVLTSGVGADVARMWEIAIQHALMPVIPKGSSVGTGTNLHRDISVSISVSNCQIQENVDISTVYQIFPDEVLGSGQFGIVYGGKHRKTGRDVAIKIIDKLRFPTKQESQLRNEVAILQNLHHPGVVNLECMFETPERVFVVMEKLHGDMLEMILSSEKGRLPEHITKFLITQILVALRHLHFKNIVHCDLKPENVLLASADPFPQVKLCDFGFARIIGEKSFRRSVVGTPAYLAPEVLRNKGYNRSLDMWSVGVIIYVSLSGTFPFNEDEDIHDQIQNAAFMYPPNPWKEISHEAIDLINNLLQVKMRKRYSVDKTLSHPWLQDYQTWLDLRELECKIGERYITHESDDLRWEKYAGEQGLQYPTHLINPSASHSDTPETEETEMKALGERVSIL
Text: (§1) We assessed the selectivity of members of this scaffold using the KINOMEscan methodology across a near comprehensive panel of 442 kinases [[18,27]].

panel of 442 kinases [2] = biological target: T2, panel of 442 kinases (Homo sapiens, UniProt Q8N5S9)
T2 construct: purchased KINOMEscan
T2 sequence (Q8N5S9 whole entry): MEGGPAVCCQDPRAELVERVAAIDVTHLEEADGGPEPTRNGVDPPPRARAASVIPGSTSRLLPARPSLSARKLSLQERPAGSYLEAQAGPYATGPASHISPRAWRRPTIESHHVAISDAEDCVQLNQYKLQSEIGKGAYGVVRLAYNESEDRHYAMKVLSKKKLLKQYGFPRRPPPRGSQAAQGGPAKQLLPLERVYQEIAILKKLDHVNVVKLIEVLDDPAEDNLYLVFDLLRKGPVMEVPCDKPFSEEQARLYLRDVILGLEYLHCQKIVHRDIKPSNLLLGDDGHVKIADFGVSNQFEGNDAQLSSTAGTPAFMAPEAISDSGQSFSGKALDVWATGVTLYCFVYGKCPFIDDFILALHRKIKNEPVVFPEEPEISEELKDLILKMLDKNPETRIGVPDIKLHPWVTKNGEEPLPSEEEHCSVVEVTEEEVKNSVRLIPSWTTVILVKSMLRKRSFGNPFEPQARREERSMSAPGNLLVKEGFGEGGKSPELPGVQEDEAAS
Text: as §1

panel of 442 kinases [3] = biological target: T3, panel of 442 kinases (Homo sapiens, UniProt Q9Y6R4)
T3 construct: purchased KINOMEscan
T3 sequence (Q9Y6R4 whole entry): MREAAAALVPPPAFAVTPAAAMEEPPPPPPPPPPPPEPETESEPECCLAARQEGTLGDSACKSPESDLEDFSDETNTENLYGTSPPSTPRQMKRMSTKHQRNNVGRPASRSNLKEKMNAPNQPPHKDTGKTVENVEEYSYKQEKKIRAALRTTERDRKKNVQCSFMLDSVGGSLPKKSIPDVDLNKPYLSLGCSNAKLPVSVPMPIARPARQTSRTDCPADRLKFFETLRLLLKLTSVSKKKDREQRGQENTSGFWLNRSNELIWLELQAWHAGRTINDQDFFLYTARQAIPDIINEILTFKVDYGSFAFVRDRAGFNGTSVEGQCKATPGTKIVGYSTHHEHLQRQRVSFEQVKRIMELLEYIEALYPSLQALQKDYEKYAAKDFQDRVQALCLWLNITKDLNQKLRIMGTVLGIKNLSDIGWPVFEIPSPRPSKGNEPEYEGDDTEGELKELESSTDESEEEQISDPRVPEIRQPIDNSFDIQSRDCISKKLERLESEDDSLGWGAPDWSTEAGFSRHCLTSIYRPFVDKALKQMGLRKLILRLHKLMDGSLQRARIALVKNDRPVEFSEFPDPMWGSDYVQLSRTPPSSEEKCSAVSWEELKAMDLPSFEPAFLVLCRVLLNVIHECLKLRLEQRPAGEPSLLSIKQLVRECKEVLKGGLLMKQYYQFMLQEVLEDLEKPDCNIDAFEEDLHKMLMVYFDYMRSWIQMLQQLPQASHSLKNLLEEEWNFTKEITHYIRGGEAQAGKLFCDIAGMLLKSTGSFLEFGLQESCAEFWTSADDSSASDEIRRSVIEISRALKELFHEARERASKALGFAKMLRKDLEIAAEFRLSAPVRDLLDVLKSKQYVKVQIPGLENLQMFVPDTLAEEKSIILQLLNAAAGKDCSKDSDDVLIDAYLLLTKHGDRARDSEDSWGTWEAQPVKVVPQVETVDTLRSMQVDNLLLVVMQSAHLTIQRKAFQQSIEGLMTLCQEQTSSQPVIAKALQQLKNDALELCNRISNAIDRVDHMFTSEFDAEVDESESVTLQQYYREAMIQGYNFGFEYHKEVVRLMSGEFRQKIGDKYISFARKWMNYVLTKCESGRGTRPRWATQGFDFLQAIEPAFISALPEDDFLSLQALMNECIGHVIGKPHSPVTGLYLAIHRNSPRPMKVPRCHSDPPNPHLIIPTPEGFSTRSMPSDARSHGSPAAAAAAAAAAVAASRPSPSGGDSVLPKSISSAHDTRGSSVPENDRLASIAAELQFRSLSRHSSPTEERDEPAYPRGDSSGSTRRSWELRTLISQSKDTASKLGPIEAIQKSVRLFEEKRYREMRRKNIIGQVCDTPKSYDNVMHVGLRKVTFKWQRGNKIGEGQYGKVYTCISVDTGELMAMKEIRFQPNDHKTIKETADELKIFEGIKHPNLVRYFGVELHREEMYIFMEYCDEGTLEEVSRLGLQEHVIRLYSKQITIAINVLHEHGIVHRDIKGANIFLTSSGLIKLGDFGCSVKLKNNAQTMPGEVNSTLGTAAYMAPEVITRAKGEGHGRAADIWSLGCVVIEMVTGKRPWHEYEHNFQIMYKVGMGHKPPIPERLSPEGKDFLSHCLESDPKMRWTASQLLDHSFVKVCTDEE
Text: as §1

Row | SMILES | KINOMEscan: PRKD1 (panel of 442 kinases [1]) | KINOMEscan: CAMKK1 (panel of 442 kinases [2]) | KINOMEscan: MAP3K4 (panel of 442 kinases [3])
1 | CCOc1cc(C(=O)N2CCC(N3CCN(C)CC3)CC2)ccc1Nc1ncc2c(n1)N(C1CCCC1)c1ccccc1C(=O)N2C [Compound 26] | 100 | 100 | 100
2 | COc1cc(C(=O)N2CCC(N3CCN(C)CC3)CC2)ccc1Nc1ncc2c(n1)N(C1CCCC1)c1ccccc1C(=O)N2C [Compound 25, 11-cyclopentyl-2-((2-methoxy-4-(4-(4-methylpiperazin-1-yl)piperidine-1-carbonyl)phenyl)amino)-5-methyl-5H-benzo[e]pyrimido[5,4-b][1,4]diazepin-6(11H)-one] | 100 | 99 | 100
3 | COc1cc(C(=O)N2CCC(N3CCN(C)CC3)CC2)ccc1Nc1ncc2c(n1)N1CCc3cccc(c31)C(=O)N2C [Compound 24] | 21 | – | –
4 | COc1cc(C(=O)N2CCC(N3CCN(C)CC3)CC2)ccc1Nc1ncc2c(n1)N(C)c1ccccc1C(=O)N2C [15 (LRRK2-IN-1)] | 28 | 73 | 100
